The values below are quoted from earlier work in patent publication US20250222007A1, “PREPARATION OF LOW MOLECULAR WEIGHT POLYLACTIC ACID AND THE USE THEREOF” (AL Andalous for Pharmaceutical Industries, priority 2023, published 2025).

One series relates to blind human eyes. To be noted: 66% DMSO (with Tetryzoline) topically 4-8 times a day.
The test system of a further series is lower conjunctival sac. To be noted: 50 microliters instilled directly in the lower conjunctival sac.
Another series relates to rabbit eye. To be noted: 0.2 ml/day of 100% DMSO (4 drops/day) for 6 months.
For series [1] the following is noted: dissolved in 0.1% DMSO, 20.5, 5, 10, 30, 40 micrograms.

For `C[S+](C)[O-]` [DMSO, dimethyl sulfoxide], in the series on blind human eyes, the “cases with a burning sensation” value is recorded as “only one case” and the “sensitivity to DMSO, epithelial damage, increase of IOP or keratitis” value was “None of any blind eyes evinced any evidence”. Besides, the “eye irritation or conjunctival or corneal injury” value in the series on lower conjunctival sac is given as “without any signs of eye irritation or conjunctival or corneal injury”. Also, in the series with rabbit eye, the “adverse effect in the eye” value was “without any evidence of an adverse effect”.

`Clc1ccc(COC(Cn2ccnc2)c2ccc(Cl)cc2Cl)c(Cl)c1` (centres unmarked) [miconazole]: the “toxicity after intravitreal injection” value in series [1] was “No toxicity was observed”.
